Tests used:
[1] = 6-month regimen of sub-antibacterial doxycycline: cholesterol fractions in plasma of acute coronary syndrome patients with elevated baseline cholesterol; type: in vivo, human
Experimental: After six months, the cholesterol fractions were then measured (Table 1). Table 1: The Effect of a 6-Month Regimen of Sub-Antibacterial Doxycycline on Cholesterol Values in Plasma of Acute Coromary Syndrome Patients with Elevated Baseline Cholesterol

[2] = in vivo; cited from earlier work
[3] = humans; cited from earlier work

Structure (SMILES) | Change Due to Treatment, HDL/Cholesterol (Increase) ([1]; 6 months vs baseline, doxycycline 20 mg twice a day) [%] | Change Due to Treatment, LDL-Cholesterol (Reduction) ([1]; 6 months vs baseline, doxycycline 20 mg twice a day, p=0.033) [%] | Total Cholesterol, 6 Month Level ([1]; plasma, doxycycline 20 mg twice a day for six months, 3 patients on statins, baseline 231 ± 20) [mg %] | HDL-Cholesterol, 6 Month Level ([1]; plasma, doxycycline 20 mg twice a day for six months, baseline 48 ± 17) [mg %] | LDL-Cholesterol, 6 Month Level ([1]; plasma, doxycycline 20 mg twice a day for six months, baseline 155 ± 9) [mg %] | HDL/Cholesterol, 6 Month Level ([1]; ratio of HDL-cholesterol to total cholesterol, doxycycline 20 mg twice a day for six months, baseline 0.21) | Effect on serum cholesterol levels [2] | Effect on serum cholesterol [3]
C[C@H]1c2cccc(O)c2C(=O)C2=C(O)[C@]3(O)C(=O)C(C(N)=O)=C(O)[C@@H](N(C)C)[C@@H]3[C@@H](O)[C@@H]21 [doxycycline] | 19 | 31 | 190 ± 20 | 48 ± 18 | 107 ± 12 | 0.25 |  | 
CN(C)[C@@H]1C(O)=C(C(N)=O)C(=O)[C@@]2(O)C(O)=C3C(=O)c4c(O)cccc4[C@@](C)(O)[C@H]3C[C@@H]12 [tetracycline] |  |  |  |  |  |  | reduce serum cholesterol levels | no effect
